Values belong to the molecule of their own block, whether it stands above or below them.
What was measured:
[1] = without surfactant; cited from earlier work
[2] = Long-term stability of loaded solutions to precipitation; format: physicochemical
Experimental: (§1) Majority of tested compositions were prepared with ˜0.1 wt. % of atomic ^6Li, although a possibility of higher concentrations was also tested for some efficient formulations. For liquid preparations, solid constituents weighed in vials or glass jars at ambient condition were vacuumed and transferred into the nitrogen-filled glove box, where liquid components (EJ-309, DIPN, Tx-100, and IBA) were added for dissolution. Solutions were left to stirred overnight to reach equilibrium, then transferred into the quartz cuvettes, sealed, and removed from the glovebox. Unless indicated otherwise, measurements were made in small cylindrical cuvettes of Ø2 cm×1 cm in dimensions. For approximate evaluation of the attenuation, solutions of interest were also prepared and measured at larger scale in 2″×2″ (Ø5.1 cm×5.1 cm) quartz cuvettes.

[3] = Solubility of lipophilic salts in liquids; format: physicochemical
Experimental: as §1

Structure (SMILES): O=C([O-])c1cccc(-c2ccccc2)c1O.[6Li+] [^6LiPSA]
solubility in aromatics [1]: slightly soluble

stability of solutions ([2]; single dye solutions in 90:10 DIPN:IBA): highly stable
precipitation or LO degradation on storage ([2]; single dye solutions in 95:5 DIPN:IBA, sealed samples, ~1 year of observations): no precipitation or LO degradation
Structure (SMILES): CC(C)CC(=O)[O-].[6Li+] [^6LiIVA, reference compound]

Structure (SMILES): CCCCC(CC)COC(=O)CC(C(=O)OCC(CC)CCCC)S(=O)(=O)[O-].[Li+] (centres unmarked) [^6LiDOSS, lithium 1,4-bis(2-ethylhexoxy)-1,4-dioxobutane-2-sulfonate]
solubility of the compound in DIPN ([3]; DIPN, studies of long-term stability): about 20 wt. %
solubility in organic fluids ([3]; organic fluids, of total scintillator): about 50 wt. %
solubility of the compound ([3]; without any additional dyes): up to 40 wt. %
^6Li concentration at which solutions are stable to solid precipitation ([2]; solution containing 0.5 wt. % of E404): ≤ 0.3 wt. % ^6Li
stability to long-term precipitation ([2]; solutions containing 0.2 wt. % of atomic lithium): stable to long-term precipitation
